Source: ChEMBL document CHEMBL1201862, “PubChem BioAssay data set” (2004)
Activity calls are given as the source filed them.

How the values were obtained:
[1] = target: Dual specificity tyrosine-phosphorylation-regulated kinase 1A (Rattus norvegicus, UniProt Q63470); type: biochemical, Homo sapiens
HeLa = assay: ATP-based viability loss in HeLa cells – cell-based, CellTiter-Glo luminescence, cherry-pick samples, cytotoxicity control for MITF activator project, dose response (AID 540259); type: functional; settings: Homo sapiens
[2] = tested on: Streptococcus sp. 'group A'; assay: Streptococcus pyogenes SK(-)GAS viability under kanamycin – luminescence, BacTiterGlo, confirmation, counter-screen for streptokinase expression inhibitor project, dose response (AID 1900); type: functional, organism-based
Streptococcus = assay: GAS UMAA2166 growth inhibition – luminescence, BacTiterGlo, counter-screen for streptokinase expression inhibitor project, dose response (AID 1915); type: functional, organism-based;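 also: potency for reduction of bacterial viability or growth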
Vero [3] = assay: cells; type: functional, cell-based; settings: Chlorocebus sabaeus
Vero [4] = assay: cells; type: functional; settings: Chlorocebus sabaeus
[5] = target: T1, Heat shock factor protein 1 (Mus musculus, UniProt P38532); assay: enhancement of HSF1-driven luciferase signal – cell-based, NIH3T3, luminescence, dose retest, confirmation (AID 435004); type: functional;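 also: stress induced by proteasome inhibitor MG132 added 30 min after compound; luciferase reporter driven by HSF1 response element in NIH3T3 cells; actives raise luminescence as potentiators of the MG132 stress response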
T1 sequence (P38532 whole entry): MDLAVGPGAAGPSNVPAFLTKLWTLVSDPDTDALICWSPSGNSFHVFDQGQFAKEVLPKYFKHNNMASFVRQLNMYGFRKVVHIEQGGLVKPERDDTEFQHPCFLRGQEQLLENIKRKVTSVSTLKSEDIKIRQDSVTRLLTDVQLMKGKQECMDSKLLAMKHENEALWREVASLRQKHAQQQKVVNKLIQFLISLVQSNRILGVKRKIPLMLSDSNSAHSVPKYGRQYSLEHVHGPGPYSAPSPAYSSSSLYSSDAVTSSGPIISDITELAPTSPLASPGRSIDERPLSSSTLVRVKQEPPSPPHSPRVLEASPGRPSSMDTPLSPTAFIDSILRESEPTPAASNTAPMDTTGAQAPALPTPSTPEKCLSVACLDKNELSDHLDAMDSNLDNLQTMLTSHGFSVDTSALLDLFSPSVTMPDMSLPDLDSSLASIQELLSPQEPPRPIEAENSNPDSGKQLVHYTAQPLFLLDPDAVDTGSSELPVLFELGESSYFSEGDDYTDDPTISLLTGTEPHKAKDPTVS

[6] = target: T2, Polyadenylate-binding protein 1 (Homo sapiens, UniProt P11940); assay: MLLE binding blockers, Cy5 peptide tracer – biochemical, fluorescence polarization, Cy5-PAM2 peptide, secondary, miRNA deadenylation inhibitor project, dose response (AID 602260); type: functional; settings: read-out: IC50_Mean
[7] = target: T2, Polyadenylate-binding protein 1; assay: MLLE domain peptide-binding blockers, IC50 – biochemical, fluorescence polarization, FITC-PAM2 peptide, dose response (AID 602259); type: functional; settings: read-out: IC50_Mean
[8] = target: T3, RNA-binding protein pos-1 (Caenorhabditis elegans, UniProt G5EF15); assay: disruptors of C. elegans POS-1 RNA interaction – biochemical, fluorescence polarization, dose response (AID 1964);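 also: purified POS-1 fused to maltose binding protein made in E. coli; potency of compounds blocking POS-1 binding to fluorescent RNA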
T3 sequence (G5EF15 whole entry): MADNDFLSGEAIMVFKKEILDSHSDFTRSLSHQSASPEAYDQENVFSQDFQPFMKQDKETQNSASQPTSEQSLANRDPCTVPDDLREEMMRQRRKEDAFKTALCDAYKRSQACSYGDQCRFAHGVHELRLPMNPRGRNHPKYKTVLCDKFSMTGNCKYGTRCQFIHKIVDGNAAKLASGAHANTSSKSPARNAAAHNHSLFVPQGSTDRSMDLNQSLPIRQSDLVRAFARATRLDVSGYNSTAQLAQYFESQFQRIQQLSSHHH

[9] = target: T4, Zinc finger protein mex-5 (Caenorhabditis elegans, UniProt Q9XUB2); assay: potency of MEX-5 RNA-binding blockers – biochemical, C. elegans, fluorescence polarization, dose response (AID 1960)
T4 sequence (Q9XUB2 whole entry): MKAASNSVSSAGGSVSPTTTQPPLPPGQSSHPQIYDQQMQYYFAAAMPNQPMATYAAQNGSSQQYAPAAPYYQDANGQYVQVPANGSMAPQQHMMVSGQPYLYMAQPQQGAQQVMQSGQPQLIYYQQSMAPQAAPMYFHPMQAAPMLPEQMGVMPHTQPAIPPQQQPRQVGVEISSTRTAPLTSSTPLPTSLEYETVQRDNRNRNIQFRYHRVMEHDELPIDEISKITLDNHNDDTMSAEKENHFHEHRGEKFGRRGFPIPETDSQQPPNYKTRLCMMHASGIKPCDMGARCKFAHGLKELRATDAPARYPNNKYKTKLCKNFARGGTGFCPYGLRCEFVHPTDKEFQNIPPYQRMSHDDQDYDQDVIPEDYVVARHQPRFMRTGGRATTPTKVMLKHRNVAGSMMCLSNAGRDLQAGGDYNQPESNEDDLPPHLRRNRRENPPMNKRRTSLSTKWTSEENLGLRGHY

[10] = luciferase reporter signal suppression in cells – H4 neuroglioma cells, luminescence, dose response (AID 1990); type: functional, cell-based
[11] = Luminescence Cell-Based Dose Response HTS to Identify Inhibitors of 5'UTR Stem-Loop Driven Prion Protein mRNA Translation in H4 Neuroglioblastoma Cells. [Related pubchem assays: 1827 (Project Summary), 1813 (Primary HTS)]; type: functional
[12] = alpha-synuclein stem-loop luciferase translation blockers – H4 neuroglioma cells, luminescence, confirmation (AID 1988); type: functional, cell-based
Paired box protein Pax-8 = Paired box protein Pax-8 (Homo sapiens, UniProt Q06710); assay: PAX8 transcriptional activity inhibition in RMG-I – RMG-I cells, luciferase, cherry-pick, dose response (AID 687027); type: functional, cell-based;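 also: luciferase reporter driven by Pax8 target thyroperoxidase promoter measured by SteadyGlo luminescence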
Caspase-3 = target: T5, Caspase-3 (Homo sapiens, UniProt P42574); type: functional;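 also: Dose-response selectivity test against caspase-3 for candidate inhibitors of sentrin-specific proteases (SENPs)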
T5 sequence (P42574 whole entry): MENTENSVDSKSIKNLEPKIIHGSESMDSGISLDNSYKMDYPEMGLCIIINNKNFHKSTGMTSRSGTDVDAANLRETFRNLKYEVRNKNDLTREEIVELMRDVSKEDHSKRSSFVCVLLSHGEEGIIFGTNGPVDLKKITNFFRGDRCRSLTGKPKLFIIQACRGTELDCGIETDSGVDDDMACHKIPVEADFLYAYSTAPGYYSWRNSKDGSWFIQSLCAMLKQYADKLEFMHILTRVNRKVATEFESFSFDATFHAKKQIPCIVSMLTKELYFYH

[13] = target: T6, Sentrin-specific protease 7 (Homo sapiens, UniProt Q9BQF6); type: functional;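 also: Luminescence-based dose-response confirmation of ultra-high-throughput screening hits, measuring inhibition of SENP7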
T6 sequence (Q9BQF6 whole entry): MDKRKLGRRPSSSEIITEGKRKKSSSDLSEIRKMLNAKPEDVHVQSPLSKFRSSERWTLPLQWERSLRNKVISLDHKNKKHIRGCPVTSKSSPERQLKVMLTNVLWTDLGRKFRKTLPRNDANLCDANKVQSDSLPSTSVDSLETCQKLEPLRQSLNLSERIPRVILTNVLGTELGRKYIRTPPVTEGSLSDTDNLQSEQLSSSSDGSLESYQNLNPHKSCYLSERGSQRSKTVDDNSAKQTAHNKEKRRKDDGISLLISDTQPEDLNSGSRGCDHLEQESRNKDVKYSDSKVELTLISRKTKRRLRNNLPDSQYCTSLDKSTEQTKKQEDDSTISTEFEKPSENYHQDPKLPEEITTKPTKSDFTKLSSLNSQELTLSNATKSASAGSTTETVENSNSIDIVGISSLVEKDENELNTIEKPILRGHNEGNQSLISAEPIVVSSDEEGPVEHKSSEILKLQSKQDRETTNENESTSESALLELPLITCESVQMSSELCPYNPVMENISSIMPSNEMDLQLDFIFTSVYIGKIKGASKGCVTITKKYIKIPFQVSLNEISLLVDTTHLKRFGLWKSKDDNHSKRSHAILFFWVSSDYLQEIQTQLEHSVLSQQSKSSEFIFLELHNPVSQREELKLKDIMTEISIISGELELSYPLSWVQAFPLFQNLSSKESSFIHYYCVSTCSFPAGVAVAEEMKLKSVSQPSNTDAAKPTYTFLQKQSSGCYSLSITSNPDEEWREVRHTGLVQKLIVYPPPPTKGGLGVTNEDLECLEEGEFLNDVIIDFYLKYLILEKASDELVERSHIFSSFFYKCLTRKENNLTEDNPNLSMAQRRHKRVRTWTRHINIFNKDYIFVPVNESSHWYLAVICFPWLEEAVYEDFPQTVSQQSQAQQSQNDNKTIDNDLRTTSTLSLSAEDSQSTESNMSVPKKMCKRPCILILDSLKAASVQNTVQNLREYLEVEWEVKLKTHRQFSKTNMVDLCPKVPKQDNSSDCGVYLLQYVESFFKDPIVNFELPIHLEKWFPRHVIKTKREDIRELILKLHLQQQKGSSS

[14] = target: T7, Sentrin-specific protease 6 (Homo sapiens, UniProt Q9GZR1); type: functional;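 also: Luminescence-based dose-response confirmatory assay of SENP6 inhibition, following up an ultra-high-throughput screen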
T7 sequence (Q9GZR1 whole entry): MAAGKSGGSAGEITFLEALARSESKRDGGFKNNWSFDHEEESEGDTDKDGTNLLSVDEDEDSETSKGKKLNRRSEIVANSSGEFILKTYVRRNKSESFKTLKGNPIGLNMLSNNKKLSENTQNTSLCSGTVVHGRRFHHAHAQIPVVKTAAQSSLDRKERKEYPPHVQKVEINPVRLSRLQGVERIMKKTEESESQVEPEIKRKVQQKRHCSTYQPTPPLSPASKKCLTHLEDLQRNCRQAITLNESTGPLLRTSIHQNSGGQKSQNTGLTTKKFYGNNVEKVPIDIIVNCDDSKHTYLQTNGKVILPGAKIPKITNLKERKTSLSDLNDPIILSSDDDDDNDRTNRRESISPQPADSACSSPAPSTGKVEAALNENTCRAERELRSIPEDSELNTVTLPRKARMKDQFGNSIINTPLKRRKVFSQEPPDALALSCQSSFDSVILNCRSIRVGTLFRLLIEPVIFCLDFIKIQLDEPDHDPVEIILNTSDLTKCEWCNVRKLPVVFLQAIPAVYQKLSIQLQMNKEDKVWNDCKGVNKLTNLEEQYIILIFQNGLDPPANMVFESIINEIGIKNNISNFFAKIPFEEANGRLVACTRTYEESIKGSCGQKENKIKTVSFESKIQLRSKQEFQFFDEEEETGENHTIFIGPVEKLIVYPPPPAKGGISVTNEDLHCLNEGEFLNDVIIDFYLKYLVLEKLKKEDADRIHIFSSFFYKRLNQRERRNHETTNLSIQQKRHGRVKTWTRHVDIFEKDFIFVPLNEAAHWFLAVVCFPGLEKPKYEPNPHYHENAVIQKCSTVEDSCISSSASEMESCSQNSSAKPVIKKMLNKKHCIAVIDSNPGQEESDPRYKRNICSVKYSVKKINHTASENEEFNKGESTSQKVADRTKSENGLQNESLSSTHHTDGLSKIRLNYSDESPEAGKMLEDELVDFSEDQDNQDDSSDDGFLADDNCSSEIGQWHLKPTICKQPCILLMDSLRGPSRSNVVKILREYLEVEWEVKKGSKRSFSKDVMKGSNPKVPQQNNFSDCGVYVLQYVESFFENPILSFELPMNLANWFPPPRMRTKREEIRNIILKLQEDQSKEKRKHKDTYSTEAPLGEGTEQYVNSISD

[15] = target: T8, Sentrin-specific protease 8 (Homo sapiens, UniProt Q96LD8); type: functional;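 also: luminescence read-out of SENP8 inhibition, dose-response confirmation following an ultra-high-throughput screen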
T8 sequence (Q96LD8 whole entry): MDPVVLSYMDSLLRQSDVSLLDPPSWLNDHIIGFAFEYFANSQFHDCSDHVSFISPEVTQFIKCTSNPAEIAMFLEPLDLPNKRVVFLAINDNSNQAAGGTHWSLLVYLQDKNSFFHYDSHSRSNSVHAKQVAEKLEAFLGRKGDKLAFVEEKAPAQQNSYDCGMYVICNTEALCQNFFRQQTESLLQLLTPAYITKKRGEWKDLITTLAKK

T2 sequence (P11940 whole entry, the tested form may be a part): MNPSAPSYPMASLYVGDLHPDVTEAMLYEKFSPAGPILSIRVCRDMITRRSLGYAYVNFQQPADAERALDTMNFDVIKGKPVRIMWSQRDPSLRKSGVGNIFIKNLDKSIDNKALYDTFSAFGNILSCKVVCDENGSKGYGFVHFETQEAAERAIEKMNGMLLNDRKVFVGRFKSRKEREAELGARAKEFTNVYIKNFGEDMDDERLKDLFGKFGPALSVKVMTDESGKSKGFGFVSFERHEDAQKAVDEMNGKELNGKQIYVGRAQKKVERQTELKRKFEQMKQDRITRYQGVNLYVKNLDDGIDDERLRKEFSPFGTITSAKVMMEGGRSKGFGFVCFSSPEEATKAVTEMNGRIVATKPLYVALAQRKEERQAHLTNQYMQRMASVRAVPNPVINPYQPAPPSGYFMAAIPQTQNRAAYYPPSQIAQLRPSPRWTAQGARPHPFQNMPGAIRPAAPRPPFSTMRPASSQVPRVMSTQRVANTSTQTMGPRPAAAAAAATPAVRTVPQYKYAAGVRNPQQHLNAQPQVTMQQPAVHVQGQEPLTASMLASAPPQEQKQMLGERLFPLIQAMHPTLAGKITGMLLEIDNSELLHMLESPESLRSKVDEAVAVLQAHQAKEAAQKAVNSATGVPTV
Chain of Paired box protein Pax-8 (Q06710 whole entry): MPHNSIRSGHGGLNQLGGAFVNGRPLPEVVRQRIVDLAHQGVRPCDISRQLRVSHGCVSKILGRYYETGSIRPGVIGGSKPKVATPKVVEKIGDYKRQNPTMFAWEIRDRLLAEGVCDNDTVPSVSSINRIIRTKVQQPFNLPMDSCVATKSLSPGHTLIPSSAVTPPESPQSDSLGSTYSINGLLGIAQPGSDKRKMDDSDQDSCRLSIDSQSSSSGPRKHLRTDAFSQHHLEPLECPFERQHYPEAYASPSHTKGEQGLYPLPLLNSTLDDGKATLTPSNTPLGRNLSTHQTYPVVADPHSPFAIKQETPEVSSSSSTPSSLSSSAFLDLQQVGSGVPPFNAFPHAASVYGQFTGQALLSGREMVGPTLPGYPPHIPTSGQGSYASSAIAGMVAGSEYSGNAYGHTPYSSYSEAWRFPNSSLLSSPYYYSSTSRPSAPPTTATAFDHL

## N=C(N)NC(=O)c1nc(Cl)c(N)nc1N
[1]
  AC50: 9.17 µM (active)

## Cc1cc2ncc(-c3ccc(Cl)cc3)c(N)n2n1
HeLa
  AC50: 68.3 µM (active)

## COc1ccc(CC(=O)NC(=S)NNC(=O)COc2c(C)cccc2C)cc1
[2]
  EC50: 0.124 µM (active)
Streptococcus
  EC50: 6.88 µM (active)
Vero [3]
  IC50: 11.4 µM (active)
Vero [4]
  CC50: > 25 µM (active)

## CCN(CC)S(=O)(=O)c1ccc(C)c(NC(S)=Nc2cccc(S(=O)(=O)N3CCCCCC3)c2)c1
[5]
  EC50: > 260 µM (inactive)
Vero [3]
  IC50: > 25 µM (active)
Vero [4]
  CC50: 18.7 µM (active)
[6]
  IC50: > 66 µM (inactive)
[7]
  IC50: > 66 µM (inactive)

## c1ccc2oc(CCc3nc4ccccc4o3)nc2c1
[8]
  EC50: > 300 µM (not active)
[9]
  EC50: > 300 µM (not active)
HeLa
  AC50: 56.3 µM (active)

## CCCSc1ccc(C(=O)Nc2ccc(F)cc2F)cn1
HeLa
  AC50: 88.6 µM (active)

## Cc1cc(O)c(C(=O)/C=C/c2ccc(Cl)cc2)c(=O)o1
Vero [3]
  IC50: > 25 µM (active)
Vero [4]
  CC50: 17.6 µM (active)

## CC1=CC(C)(C)N2C(=O)C3(NCCc4c3[nH]c3ccccc43)c3cc(C)cc1c32 (centres undefined)
[10]
  EC50: 12.2 µM (active)
[11]
  EC50: > 120 µM (not active)
[12]
  EC50: > 120 µM (not active)
Vero [3]
  IC50: 22.7 µM (active)
Vero [4]
  CC50: > 25 µM (active)
Paired box protein Pax-8
  AC50: 7.27 µM (active)

## COc1ccc(/C=C2\SC(=S)N(C(C)C(=O)NC3C=CS(=O)(=O)C3)C2=O)cc1 (centres undefined)
[1]
  AC50: 2.73 µM (active)

## Clc1ccc(COn2nnc3ccccc32)c(Cl)c1
Caspase-3
  IC50: 24.1 µM (active)
[13]
  IC50: 8.88 µM (active)
[14]
  IC50: 31.2 µM (active)
[15]
  IC50: 35.3 µM (active)
HeLa
  AC50: 77.9 µM (active)
